Data on two compounds can be found in patent US20240230620A1, “CURRENT AND […]” (National Taiwan University, priority 2023, published 2024).

Each structure is given as a SMILES string. Where two headings read alike, the source gives them in different places.

For one assay, the system named is Gα subunit. The conditions noted are these: fluorescence.
Assay [1] addresses T1, AtGPA1 (Arabidopsis thaliana, UniProt P18064).
T1 sequence (P18064 1-383): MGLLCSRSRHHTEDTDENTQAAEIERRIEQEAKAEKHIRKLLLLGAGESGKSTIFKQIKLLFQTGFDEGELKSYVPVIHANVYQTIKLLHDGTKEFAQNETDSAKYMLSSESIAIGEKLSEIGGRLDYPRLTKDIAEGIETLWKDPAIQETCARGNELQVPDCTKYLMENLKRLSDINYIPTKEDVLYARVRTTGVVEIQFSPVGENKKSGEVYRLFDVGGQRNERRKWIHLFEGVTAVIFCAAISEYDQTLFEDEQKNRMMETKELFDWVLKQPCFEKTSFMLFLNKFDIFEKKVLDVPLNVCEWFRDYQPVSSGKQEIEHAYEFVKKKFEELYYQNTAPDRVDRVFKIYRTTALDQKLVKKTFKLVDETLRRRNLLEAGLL
As to the kind of experiment: GTPγS saturation binding analysis of AtGPA1 (photocurrent and fluorescence). The conditions noted are these: percent of maximum fitted to a hyperbola, preliminary test. The method, then: The photo-induced-voltage-generating solution chamber was filled with 20 mg/mL HEBR solution in the dual chamber format. The sample to be tested was added to the sample chamber at a volume of 100-150 μL. The photo-induced-voltage-generating solution chamber was illuminated by a 10-Hz, 532-nm flash laser (Nd-YAG laser, 6 ns pulse, pump energy 21 J) via a central control unit (Raspberry Pi 400) to generate the alternating photocurrent. The data recording system was identical to steady-state photocurrent measurement. Each data was collected at a single trigger event. The laser was triggered at 0 s and stopped at 40 s with each 5 s pre-trigger and post-illumination. Then, the raw data were recorded in a .csv file and processed by the Python code. The processed data were exported to an excel file for further analysis.
After the successful measurement of the interaction of Gα with its ligand, the present device was extended to measure the KD of Gα and its ligands. In preliminary test, the plant Arabidopsis thaliana Gα AtGPA1 and a non-hydrolyzable GTP analog GTPγS were adopted. […] The AtGPA1 was purified and analyzed the activity using the identical method in mammalian Gα purification.
Referring to FIG. 24, to calculate the KD of AtGPA1 and GTPγS, both photocurrent and fluorescence were measured. […]

The target in assay [2] is T1, AtGPA1. The conditions noted are these: derived from radioactive GTPγS assay; read-out: KD of AtGPA1 and GTPγS, previous study; cited from earlier work.

Protocol for Gα subunit: The intrinsic tryptophan in the switch-II region serves as a fluorescent probe for examining the activity of Ga subunit. In the AlF4^− dependent activation assay, the AlF4^− bound to GDP mimics the transition state of GTP hydrolysis, stimulating the conformational change of the switch-II region and enhancing the fluorescence quantum yields of intrinsic Trp. This principle was also applied to GDP/GTP auto-exchange, but it was conducted using of GTPγS, a non-hydrolyzable GTP analog. In the time-course of Trp fluorescence measurement, the excitation and emission wavelengths were 280 and 340 nm, respectively, and both slits are 10 nm. For AlF4^− dependent activation assay, 20 μL 20 μM Ga protein was first added into a cuvette filled with 1.5 mL buffer G without BME and PMSF at 50 s. Then 40 μL 500 mM NaF and 20 μL 10 mM AlCl3 were added simultaneously at 100 s. For GDP/GTP auto-exchange, the experiments were conducted as described above using 1 μM GTPγS instead of AlF4^−.
The effectiveness of Gα inactivation using EDTA was analyzed by fluorescence (FIG. 23(A)).

With `O=C(O)CN(CCN(CC(=O)O)CC(=O)O)CC(=O)O` [EDTA], in the assay with Gα subunit (20 μM Gα subunit at 100 mM EDTA), the Gα subunit inactivation entry is listed as “almost inactivated”. In addition, the “reduction of Gα subunit activity” value in the assay on Gα subunit (20 μM Gα subunit in 10 mM EDTA) is on record as “more than 60%”.
For the compound `Nc1nc2c(ncn2[C@@H]2O[C@H](COP(=O)(O)OP(=O)(O)OP(O)(O)=S)[C@@H](O)[C@H]2O)c(=O)[nH]1` [GTPγS], the results for the dissociation constant Kd on AtGPA1 [1] and at AtGPA1 [2] were roughly 1.5 nM and 0.8 nM, respectively.
